Experimental data reported in patent US11220482B2, “Aminopyridinemethanol compounds and their use” (UNIVERSITE AMIENS PICARDIE JULES VERNE, priority 2017, dated 2022).
Like-named read-outs stand apart in the source and are kept apart here.

Tests used:
[1] = test system: P. falciparum D6, W2 and 3D7 strains; details: cited from earlier work
[2] = test system: Plasmodium falciparum 3D7; assay: Plasmodium falciparum susceptibility assay, first round (SYBR Green I); type: cell-based; details: 3D7, first round, 48-h incubation, strain susceptible to CQ, decreased susceptibility to MQ, read-out: IC50 (nM) Plasmodium falciparum 3D7 (converted)
Plasmodium falciparum W2 = assay: as above; type: cell-based; details: W2, first round, 48-h incubation, strain resistant to CQ, sensitive to MQ, read-out: IC50 (nM) Plasmodium falciparum W2 (converted)
CHO-K1 cells [3] = assay: In vitro micronucleus assay, short-term exposure
Summary of the method: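 Micronuclei were scored in 1000 binucleated cells per well in duplicate wells. Cytostasis came from CBPI over 500 cells. Doses were compared with the negative control by χ2.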

CHO-K1 cells [4] = details: Chinese hamster, 24 h
Description: All the assays were conducted in duplicate. The CHO-K1 cells, suspended in Mac Coy's 5A medium, were transferred into Labteck wells at a concentration of 100,000 cells/mL, and incubated for 24 hours at 37° C. in CO2 (5%).
The test was performed without metabolic activation: the test substances were added into cell cultures at concentrations previously defined. […] After 24 hours of incubation at 37° C. in CO2 (5%), the culture medium was removed, the cells were rinsed with phosphate buffered saline (PBS), and then returned in culture medium containing […] of cytochalasine B. After a 24-hour incubation period at 37° C., cells were rinsed with phosphate buffered saline (PBS), fixed with methanol and stained with 10% Giemsa for 20 minutes.
The analysis of results was performed under a microscope at ×1000 magnification. The antiproliferative activity of test substances was estimated by counting the number of binucleated cells relative to the number of mononucleated cells on a total of 500 cells for each dose (250 cells counted per well). The proliferation index (Cytokinesis Blocked Proliferative Index CBPI) was calculated using the following formula:
The cytostasis index (CI %), i.e. the percentage of cell replication inhibition, was calculated using the following formula: CI %−100−{100×(CBPItest material−1)/(CBPIsolvent control−1)}
The rates of micronuclei were evaluated for the presence of independent nuclear core entities in 1000 binucleated cells per well, which corresponds to 2000 cells examined by test substance dose. Micronuclei were identified as small nuclei well differentiated from cell nucleus, stained in the same manner and having a diameter less than one third of that of the cell nucleus.
Micronuclei rates obtained for different doses of test substances were compared to the negative control by a χ2 test. The assay was considered positive if: • A dose-response relationship was obtained between the rate of micronuclei and the doses tested, • At least one of these doses induced a statistically significant increase (P<0.05) in the number of micronucleated cells as compared to the negative control.

Salmonella strains = assay: Bacterial reverse mutation assay (Ames test), overall conclusion; type: cell-based, S. typhimurium; details: all tested doses, absence or presence of the metabolizing mixture
Description: Five strains of S. typhimurium were used. […] An additional strain has been chosen to detect cross-linking mutagens, hydrazines and oxidative agents: TA102, which have an AT base pair at the primary reversion site. Salmonella tester strains were gifts from Prof. B. N. Ames (Berkeley, Calif., USA). They were stored at −80° C. and regularly checked for genetic markers.
Few crystals of the frozen working strains were taken with a sterile pipette, and seeded in 10 mL of nutrient broth (NB No 2, Oxoid). Strains were grown overnight at 37° C. with shaking in Nutrient Broth No. 2, with ampicillin (25 μg/mL) for TA1535, TA97a, TA98, and TA 100, or ampicillin (25 μg/mL) plus tetracyclin (2 μg/mL) for TA 102. At the end of the incubation period, 0.1 mL of each overnight culture was mixed to 0.1 mL S9 Mix or 0.1 mL phosphate-buffered saline (PBS, pH 7.4) in 5 mL plastic tubes and various volumes of the tested samples were added to the mixtures. Each experiment included triplicate plates of four tested doses. A solvent (DMSO, 10 μL) control was added to determine the spontaneous frequency of revertants (quadruple plates). Five positive controls were also included to ensure the performance of the tester strains and the S9 Mix. […] After hardening, the plates were incubated at 37° C. for 48 hours.
At the end of the incubation period, revertants were counted with a laser colony counter equipped with a bacterial enumeration program (Spiral System Instrument Inc., Bethesda, Md., USA).
The Dunnett test was performed to determine a significant difference between the mean number of induced revertants and the mean number of spontaneous revertants.

S. typhimurium TA98 = assay: Bacterial reverse mutation assay (Ames test)
P. falciparum 3D7 = assay: P. falciparum growth inhibition assay, second round (SYBR Green I, ICEstimator); type: cell-based, Plasmodium falciparum; details: Plasmodium falciparum, 3D7, 48 h
P. falciparum W2 = assay: as above; type: cell-based; details: Plasmodium falciparum, 48 h

O[C@H](c1cc(C(F)(F)F)nc2c(C(F)(F)F)cccc12)[C@@H]1CCCCN1 [(+)-mefloquine]
factor by which more active than the other mefloquine isomer [1]: 1.6-1.8

CCCCCNC[C@@H](O)c1ccc(-c2ccc(C(F)(F)F)cc2)nc1C(F)(F)F [Compound 30c, (S)-2-(Pentylamino)-1-(2-(trifluoromethyl)-6-(4-(trifluoromethyl)phenyl)pyridin-3-yl)ethanol]
IC50 [2]: 232 ± 17 nM
IC50 (Plasmodium falciparum W2): 24.4 nM
in vitro micronucleus assay result (clastogenic and/or aneugenic activities) (CHO-K1 cells [3]): negative results
BI (binucleated cells) (CHO-K1 cells [4]; 5 μM): 432
CBPI (Cytokinesis-Blocked Proliferative Index) (CHO-K1 cells [4]; 5 μM): 1.86
CI % (cytostasis index) (CHO-K1 cells [4]; 5 μM): 5%
MNC1 (micronucleated cell rate) (CHO-K1 cells [4]; 5 μM): 8 ‰
MNC2 (micronucleated cell rate) (CHO-K1 cells [4]; 5 μM): 12 ‰
MNC-M (mean of micronucleated cell rates) (CHO-K1 cells [4]; 5 μM): 10 ± 2.8 ‰
MONO (mononucleated cells) (CHO-K1 cells [4]; 5 μM): 68
BI (binucleated cells) (CHO-K1 cells [4]; 10 μM): 331
CBPI (Cytokinesis-Blocked Proliferative Index) (CHO-K1 cells [4]; 10 μM): 1.66
CI % (cytostasis index) (CHO-K1 cells [4]; 10 μM): 27%
MNC1 (micronucleated cell rate) (CHO-K1 cells [4]; 10 μM): 9 ‰
MNC2 (micronucleated cell rate) (CHO-K1 cells [4]; 10 μM): 11 ‰
MNC-M (mean of micronucleated cell rates) (CHO-K1 cells [4]; 10 μM): 10 ± 1.4 ‰
MONO (mononucleated cells) (CHO-K1 cells [4]; 10 μM): 169
BI (binucleated cells) (CHO-K1 cells [4]; 50 μM): 218
CBPI (Cytokinesis-Blocked Proliferative Index) (CHO-K1 cells [4]; 50 μM): 1.42
CI % (cytostasis index) (CHO-K1 cells [4]; 50 μM): 52%
MNC1 (micronucleated cell rate) (CHO-K1 cells [4]; 50 μM): 10 ‰
MNC2 (micronucleated cell rate) (CHO-K1 cells [4]; 50 μM): 12 ‰
MNC-M (mean of micronucleated cell rates) (CHO-K1 cells [4]; 50 μM): 11 ± 1.4 ‰
MONO (mononucleated cells) (CHO-K1 cells [4]; 50 μM): 282
mutagenic activity in Salmonella strains (revertant rates) (Salmonella strains): No significant increase in revertant rates
Number of revertants by plate (Means ± SD), TA1535 (S. typhimurium TA1535; with S9 mix, 0.4 μg/plate): 22 ± 5^NS
Number of revertants by plate (Means ± SD), TA1535 (S. typhimurium TA1535; with S9 mix, 0.6 μg/plate): 26 ± 6^NS
Number of revertants by plate (Means ± SD), TA1535 (S. typhimurium TA1535; with S9 mix, 0.8 μg/plate): 25 ± 8^NS
Number of revertants by plate (Means ± SD), TA1535 (S. typhimurium TA1535; with S9 mix, 1 μg/plate): 26 ± 7^NS
Number of revertants by plate (Means ± SD), TA1535 (S. typhimurium TA1535; without S9 mix, 0.4 μg/plate): 26 ± 3^NS
Number of revertants by plate (Means ± SD), TA1535 (S. typhimurium TA1535; without S9 mix, 0.6 μg/plate): 25 ± 4^NS
Number of revertants by plate (Means ± SD), TA1535 (S. typhimurium TA1535; without S9 mix, 0.8 μg/plate): 28 ± 8^NS
Number of revertants by plate (Means ± SD), TA1535 (S. typhimurium TA1535; without S9 mix, 1 μg/plate): 25 ± 6^NS
Number of revertants by plate (Means ± SD), TA97a (S. typhimurium TA97a; with S9 mix, 0.4 μg/plate): 128 ± 10^NS
Number of revertants by plate (Means ± SD), TA97a (S. typhimurium TA97a; with S9 mix, 0.6 μg/plate): 134 ± 8^NS
Number of revertants by plate (Means ± SD), TA97a (S. typhimurium TA97a; with S9 mix, 0.8 μg/plate): 137 ± 11^NS
Number of revertants by plate (Means ± SD), TA97a (S. typhimurium TA97a; with S9 mix, 1 μg/plate): 125 ± 8^NS
Number of revertants by plate (Means ± SD), TA97a (S. typhimurium TA97a; without S9 mix, 0.4 μg/plate): 148 ± 8^NS
Number of revertants by plate (Means ± SD), TA97a (S. typhimurium TA97a; without S9 mix, 0.6 μg/plate): 155 ± 6^NS
Number of revertants by plate (Means ± SD), TA97a (S. typhimurium TA97a; without S9 mix, 0.8 μg/plate): 159 ± 8^NS
Number of revertants by plate (Means ± SD), TA97a (S. typhimurium TA97a; without S9 mix, 1 μg/plate): 138 ± 8^NS
Number of revertants by plate (Means ± SD), TA100 (S. typhimurium TA100; with S9 mix, 0.4 μg/plate): 202 ± 8^NS
Number of revertants by plate (Means ± SD), TA100 (S. typhimurium TA100; with S9 mix, 0.6 μg/plate): 183 ± 12^NS
Number of revertants by plate (Means ± SD), TA100 (S. typhimurium TA100; with S9 mix, 0.8 μg/plate): 178 ± 11^NS
Number of revertants by plate (Means ± SD), TA100 (S. typhimurium TA100; with S9 mix, 1 μg/plate): 168 ± 12^NS
Number of revertants by plate (Means ± SD), TA100 (S. typhimurium TA100; without S9 mix, 0.4 μg/plate): 197 ± 6^NS
Number of revertants by plate (Means ± SD), TA100 (S. typhimurium TA100; without S9 mix, 0.6 μg/plate): 201 ± 9^NS
Number of revertants by plate (Means ± SD), TA100 (S. typhimurium TA100; without S9 mix, 0.8 μg/plate): 211 ± 12^NS
Number of revertants by plate (Means ± SD), TA100 (S. typhimurium TA100; without S9 mix, 1 μg/plate): 206 ± 14^NS
Number of revertants by plate (Means ± SD), TA102 (S. typhimurium TA102; with S9 mix, 0.4 μg/plate): 346 ± 8^NS
Number of revertants by plate (Means ± SD), TA102 (S. typhimurium TA102; with S9 mix, 0.6 μg/plate): 349 ± 12^NS
Number of revertants by plate (Means ± SD), TA102 (S. typhimurium TA102; with S9 mix, 0.8 μg/plate): 368 ± 11^NS
Number of revertants by plate (Means ± SD), TA102 (S. typhimurium TA102; with S9 mix, 1 μg/plate): 359 ± 6^NS
Number of revertants by plate (Means ± SD), TA102 (S. typhimurium TA102; without S9 mix, 0.4 μg/plate): 298 ± 21^NS
Number of revertants by plate (Means ± SD), TA102 (S. typhimurium TA102; without S9 mix, 0.6 μg/plate): 319 ± 14^NS
Number of revertants by plate (Means ± SD), TA102 (S. typhimurium TA102; without S9 mix, 0.8 μg/plate): 331 ± 17^NS
Number of revertants by plate (Means ± SD), TA102 (S. typhimurium TA102; without S9 mix, 1 μg/plate): 339 ± 12^NS
Number of revertants by plate (Means ± SD), TA98 (S. typhimurium TA98; with S9 mix, 0.4 μg/plate): 34 ± 6^NS
Number of revertants by plate (Means ± SD), TA98 (S. typhimurium TA98; with S9 mix, 0.6 μg/plate): 38 ± 5^NS
Number of revertants by plate (Means ± SD), TA98 (S. typhimurium TA98; with S9 mix, 0.8 μg/plate): 28 ± 4^NS
Number of revertants by plate (Means ± SD), TA98 (S. typhimurium TA98; with S9 mix, 1 μg/plate): 26 ± 6^NS
Number of revertants by plate (Means ± SD), TA98 (S. typhimurium TA98; without S9 mix, 0.4 μg/plate): 35 ± 3^NS
Number of revertants by plate (Means ± SD), TA98 (S. typhimurium TA98; without S9 mix, 0.6 μg/plate): 33 ± 2^NS
Number of revertants by plate (Means ± SD), TA98 (S. typhimurium TA98; without S9 mix, 0.8 μg/plate): 34 ± 5^NS
Number of revertants by plate (Means ± SD), TA98 (S. typhimurium TA98; without S9 mix, 1 μg/plate): 32 ± 6^NS

O[C@H](CNCCCCCCF)c1ccc(-c2ccc(C(F)(F)F)cc2)nc1C(F)(F)F [Compound 30s]
IC50 (P. falciparum 3D7): 421 nM
IC50 (P. falciparum W2): 97.1 nM

O[C@@H](CNCCCCCCF)c1ccc(-c2ccc(C(F)(F)F)cc2)nc1C(F)(F)F [Compound 30t]
IC50 (P. falciparum 3D7): 1460 nM
IC50 (P. falciparum W2): 181 nM
